22 compounds from patent US9084424B2, “N-benzyl heterocyclic carboxamides” (BAYER INTELLECTUAL PROPERTY GMBH, priority 2010, dated 2015) can be followed below.

The term logP denotes the decadic logarithm of the partition coefficient of the neutral form, usually between octanol and water. Read a high logP as a more lipophilic compound.

A short description of data set [1]: log P by HPLC on reversed-phase column (EEC Directive 79/831 Annex V.A8). In kind it is physicochemical. The conditions noted are these: 0.1% aqueous formic acid and acetonitrile, linear gradient 10% to 90% acetonitrile. The method, then:
In table 1, the log P values were determined in accordance with EEC Directive 79/831 Annex V.A8 by HPLC (High Performance Liquid Chromatography) on a reversed-phase column (C 18), using the method described below: Temperature: 40° C.; Mobile phases: 0.1% aqueous formic acid and acetonitrile; linear gradient from 10% acetonitrile to 90% acetonitrile. Calibration was carried out using unbranched alkan-2-ones (comprising 3 to 16 carbon atoms) with known log P values (determination of the log P values by the retention times using linear interpolation between two successive alkanones). lambda-max-values were determined using UV-spectra from 200 nm to 400 nm and the peak values of the chromatographic signals.

Data set [2] concerns Pyrenophora teres. Briefly: In vivo preventive test on Pyrenophora teres (barley). The note with it: preventive spray, 500 ppm of active ingredient, evaluated 7-9 days after inoculation. On the procedure: In Vivo Preventive Test on Pyrenophora teres (Barley)
Solvent: 49 parts by weight of N,N-dimethylacetamid
Emulsifier: 1 part by weight of alkylaryl polyglycol ether
To produce a suitable preparation of active compound, 1 part by weight of active compound is mixed with the stated amounts of solvent and emulsifier, and the concentrate is diluted with water to the desired concentration.
To test for preventive activity, young plants are sprayed with the preparation of active compound at the stated rate of application. One day after this treatment, the plants are inoculated with an aqueous spore suspension of Pyrenophora teres. The plants remain for 48 hours in an incubation cabinet at 22° C. and a relative atmospheric humidity of 100%. Then the plants are placed in a greenhouse at a temperature of approximately 20° C. and a relative atmospheric humidity of approximately 80%.
The test is evaluated 7-9 days after the inoculation. 0% means an efficacy which corresponds to that of the untreated control while an efficacy of 100% means that no disease is observed.

Where [3] appears, read: HPLC on reversed-phase column (C 18), 40° C.
[4] abbreviates: HPLC, reversed-phase C 18, 40° C.

On to `CC(NC(=O)c1c(C(F)F)nn(C)c1Cl)c1ccc(OCc2ccccc2)cc1` (racemic) [Example 159], for which the log partition coefficient (logP) in data set [1] (setting [3]) came out at 3.58. For the same compound, the Efficacy in data set [2] came out at 95%.
With `Cc1cccc(C)c1CN(C)C(=O)c1c(C(F)F)nn(C)c1Cl` [Example 5], in data set [1] (setting [4]), the lipophilicity (logP) came to 3.02. The compound also displayed an Efficacy in data set [2] of 89%.
`Cc1cccc(C)c1CN(C)C(=O)c1c(C(F)F)nn(C)c1F` [Example 6] showed a logP in data set [1] (setting [4]) of 2.84. The Efficacy in data set [2] is 78%.
`CN(Cc1ccc(Cl)cc1Cl)C(=O)c1c(C(F)F)nn(C)c1F` [Example 43]: the lipophilicity (logP) in data set [1] (setting [4]) turned out to be 3.19. The Efficacy in data set [2] worked out at 100%.
In the case of `CN(Cc1c(Cl)cccc1Cl)C(=O)c1c(C(F)F)nn(C)c1Cl` [Example 61], in data set [1] (setting [4]), the lipophilicity (logP) worked out at 3.02. The compound also had an Efficacy in data set [2] of 100%.
Turning to `CN(Cc1c(Cl)cccc1Cl)C(=O)c1c(C(F)F)nn(C)c1F` [Example 62], the logP in data set [1] (setting [4]) is 2.82. The compound also had an Efficacy in data set [2] of 100%.
As for `CC(c1c(Cl)cccc1Cl)N(C)C(=O)c1c(C(F)F)nn(C)c1F` (centres unmarked) [Example 64], the lipophilicity (logP) in data set [1] (setting [4]) is 3.13. In data set [2], this compound showed an Efficacy of 95%.
The matching figures for `CC(C)c1ccccc1CN(CC#N)C(=O)c1c(C(F)F)nn(C)c1F` [Example 67]: 2.94 and 90%.
In data set [1] (setting [4]), `CC(C)c1ccc(Cl)cc1CN(CC(F)F)C(=O)c1c(C(F)F)nn(C)c1F` [Example 80] showed a log partition coefficient (logP) of 3.81. In addition, the Efficacy in data set [2] was 100%.
`Cn1nc(C(F)F)c(C(=O)N(Cc2cc(Cl)ccc2C(F)(F)F)C2CSC2)c1F` [Example 87] returned a logP in data set [1] (setting [4]) of 3.92. Besides, the Efficacy in data set [2] turned out to be 95%.
For the compound `CC(C)N(Cc1c(Cl)cccc1C(F)(F)F)C(=O)c1c(C(F)F)nn(C)c1F` [Example 92], in data set [1] (setting [4]), the logP was 3.61. This compound also gave an Efficacy in data set [2] of 70%.
`C#CCN(Cc1c(Cl)cccc1C(F)(F)F)C(=O)c1c(C(F)F)nn(C)c1F` [Example 93] registered a lipophilicity (logP) in data set [1] (setting [4]) of 3.05. In addition, in data set [2], the Efficacy is given as 95%.
`C=CCN(Cc1c(Cl)cccc1C(F)(F)F)C(=O)c1c(C(F)F)nn(C)c1F` [Example 94] displayed a logP in data set [1] (setting [4]) of 3.37. For the same compound, the Efficacy in data set [2] is 80%.
For `CN(Cc1ccccc1Br)C(=O)c1c(C(F)F)nn(C)c1Cl` [Example 104], in data set [1] (setting [4]), the lipophilicity (logP) came to 2.90. In addition, the Efficacy in data set [2] was found to be 78%.
Compound `CC(NC(=O)c1c(C(F)F)nn(C)c1F)c1ccc(C2CCCCC2)cc1` (centres unmarked) [Example 129] came in with a lipophilicity (logP) in data set [1] (setting [3]) of 4.34. In data set [2], this compound registered an Efficacy of 100%.
In data set [1] (setting [3]), `CCOc1ccc(C2(NC(=O)c3c(C(F)F)nn(C)c3F)CCCC2)cc1` [Example 131] returned a logP of 3.44. The same compound displayed an Efficacy in data set [2] of 94%.
With `COc1ccc(C2(NC(=O)c3c(C(F)F)nn(C)c3F)CCCC2)cc1` [Example 133], the logP in data set [1] (setting [3]) is 3.06. This compound registered an Efficacy in data set [2] of 95%.
In data set [1] (setting [3]), `CN(Cc1cccc(Oc2ccccc2)c1)C(=O)c1c(C(F)F)nn(C)c1Cl` [Example 149] yielded a log partition coefficient (logP) of 3.46. For the same compound, the Efficacy in data set [2] was found to be 70%.
`CN(Cc1ccc(Oc2ccc(Cl)cc2)cc1)C(=O)c1c(C(F)F)nn(C)c1Cl` [Example 157] came in with a log partition coefficient (logP) in data set [1] (setting [3]) of 3.96. The same compound came in with an Efficacy in data set [2] of 90%.
`CN(Cc1cc(Cl)ccn1)C(=O)c1c(C(F)F)nn(C)c1F` [Example 174]: the logP in data set [1] (setting [3]) is on record as 1.84. This compound came in with an Efficacy in data set [2] of 75%.
The matching figures for `CON(Cc1ncc(Cl)cc1Cl)C(=O)c1c(C(F)F)nn(C)c1Cl` [Example 182]: 2.88 and 95%.
On to `CC(c1ncc(Cl)cc1Cl)N(C(=O)c1c(C(F)F)nn(C)c1Cl)C1CCCC1` (centres unmarked) [Example 188], for which, in data set [1] (setting [3]), the lipophilicity (logP) is 4.67. In addition, in data set [2], the Efficacy is reported as 95%.
